Measured values reported in the kinase profiling compilation of Christmann-Franck et al. (2016).

Experiments:
Assay in all cases: radiometric filter-binding kinase assay, Kinase HotSpot
Conditions in all cases: compound 0.5 µM; ATP 10 µM
ABL2 (human) = ABL2 (human) (UniProt P42684)
ACVR1 (human) = ACVR1 (human) (UniProt Q04771)
AKT2 (human) = AKT2 (human) (UniProt P31751)
CAMKK2 (human) = CAMKK2 (human) (UniProt Q96RR4)
CDK2 CCNA2 (human) = CDK2 CCNA2 (human) (UniProt P24941+P20248)
CLK4 (human) = CLK4 (human) (UniProt Q9HAZ1)
CSNK2A1 (human) = CSNK2A1 (human) (UniProt P68400)
Sequence of CSNK2A1 (human) (P68400 whole entry, looked up): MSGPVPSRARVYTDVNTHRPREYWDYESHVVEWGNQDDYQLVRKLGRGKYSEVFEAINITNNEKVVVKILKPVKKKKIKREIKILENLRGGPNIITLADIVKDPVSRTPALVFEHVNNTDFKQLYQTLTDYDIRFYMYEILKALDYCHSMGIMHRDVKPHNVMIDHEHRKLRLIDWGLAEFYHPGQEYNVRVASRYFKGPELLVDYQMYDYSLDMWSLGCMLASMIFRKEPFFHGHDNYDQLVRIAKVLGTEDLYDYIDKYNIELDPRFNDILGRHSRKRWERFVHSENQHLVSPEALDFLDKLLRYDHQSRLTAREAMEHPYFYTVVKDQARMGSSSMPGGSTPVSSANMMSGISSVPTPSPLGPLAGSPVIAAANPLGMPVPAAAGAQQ

DYRK1B (human) = DYRK1B (human) (UniProt Q9Y463)
EPHA6 (human) = EPHA6 (human) (UniProt Q9UF33)
EPHA8 (human) = EPHA8 (human) (UniProt P29322)
Sequence of EPHA8 (human) (P29322 whole entry, looked up): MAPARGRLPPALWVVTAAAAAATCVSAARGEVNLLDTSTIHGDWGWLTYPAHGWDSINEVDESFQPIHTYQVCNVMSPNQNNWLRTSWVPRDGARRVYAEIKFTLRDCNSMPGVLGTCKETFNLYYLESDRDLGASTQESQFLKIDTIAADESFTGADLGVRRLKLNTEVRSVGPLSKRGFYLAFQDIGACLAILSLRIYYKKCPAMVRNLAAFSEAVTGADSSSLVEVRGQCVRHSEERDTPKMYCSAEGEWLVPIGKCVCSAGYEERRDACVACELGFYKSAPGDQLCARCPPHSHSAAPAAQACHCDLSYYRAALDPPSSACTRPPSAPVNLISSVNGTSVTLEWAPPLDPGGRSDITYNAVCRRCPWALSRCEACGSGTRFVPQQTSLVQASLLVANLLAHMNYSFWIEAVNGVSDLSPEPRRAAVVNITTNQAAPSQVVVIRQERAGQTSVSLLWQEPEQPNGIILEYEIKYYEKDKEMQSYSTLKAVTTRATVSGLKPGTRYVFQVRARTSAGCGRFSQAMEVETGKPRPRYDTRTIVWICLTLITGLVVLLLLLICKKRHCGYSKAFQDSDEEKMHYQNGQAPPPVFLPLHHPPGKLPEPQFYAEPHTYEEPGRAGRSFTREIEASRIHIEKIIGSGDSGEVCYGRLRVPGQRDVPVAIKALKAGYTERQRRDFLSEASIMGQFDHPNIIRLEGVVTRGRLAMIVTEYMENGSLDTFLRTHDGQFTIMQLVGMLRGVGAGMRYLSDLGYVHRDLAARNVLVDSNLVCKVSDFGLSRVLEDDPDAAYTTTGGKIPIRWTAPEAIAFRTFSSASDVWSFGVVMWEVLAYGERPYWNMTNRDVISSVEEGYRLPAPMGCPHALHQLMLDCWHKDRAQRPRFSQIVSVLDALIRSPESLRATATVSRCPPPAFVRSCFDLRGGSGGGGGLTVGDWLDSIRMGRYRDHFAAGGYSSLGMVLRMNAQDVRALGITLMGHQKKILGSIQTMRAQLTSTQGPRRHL

FES (human) = FES (human) (UniProt P07332)
FGFR3 (human) = FGFR3 (human) (UniProt P22607)
FGR (human) = FGR (human) (UniProt P09769)
HIPK2 (human) = HIPK2 (human) (UniProt Q9H2X6)
IGF1R (human) = IGF1R (human) (UniProt P08069)
KDR (human) = KDR (human) (UniProt P35968)
KIT (human) = KIT (human) (UniProt P10721)
MAP3K7 TAB1 (human) = MAP3K7 TAB1 (human) (UniProt O43318+Q15750)
MAP4K4 (human) = MAP4K4 (human) (UniProt O95819)
Sequence of MAP4K4 (human) (O95819 whole entry, looked up): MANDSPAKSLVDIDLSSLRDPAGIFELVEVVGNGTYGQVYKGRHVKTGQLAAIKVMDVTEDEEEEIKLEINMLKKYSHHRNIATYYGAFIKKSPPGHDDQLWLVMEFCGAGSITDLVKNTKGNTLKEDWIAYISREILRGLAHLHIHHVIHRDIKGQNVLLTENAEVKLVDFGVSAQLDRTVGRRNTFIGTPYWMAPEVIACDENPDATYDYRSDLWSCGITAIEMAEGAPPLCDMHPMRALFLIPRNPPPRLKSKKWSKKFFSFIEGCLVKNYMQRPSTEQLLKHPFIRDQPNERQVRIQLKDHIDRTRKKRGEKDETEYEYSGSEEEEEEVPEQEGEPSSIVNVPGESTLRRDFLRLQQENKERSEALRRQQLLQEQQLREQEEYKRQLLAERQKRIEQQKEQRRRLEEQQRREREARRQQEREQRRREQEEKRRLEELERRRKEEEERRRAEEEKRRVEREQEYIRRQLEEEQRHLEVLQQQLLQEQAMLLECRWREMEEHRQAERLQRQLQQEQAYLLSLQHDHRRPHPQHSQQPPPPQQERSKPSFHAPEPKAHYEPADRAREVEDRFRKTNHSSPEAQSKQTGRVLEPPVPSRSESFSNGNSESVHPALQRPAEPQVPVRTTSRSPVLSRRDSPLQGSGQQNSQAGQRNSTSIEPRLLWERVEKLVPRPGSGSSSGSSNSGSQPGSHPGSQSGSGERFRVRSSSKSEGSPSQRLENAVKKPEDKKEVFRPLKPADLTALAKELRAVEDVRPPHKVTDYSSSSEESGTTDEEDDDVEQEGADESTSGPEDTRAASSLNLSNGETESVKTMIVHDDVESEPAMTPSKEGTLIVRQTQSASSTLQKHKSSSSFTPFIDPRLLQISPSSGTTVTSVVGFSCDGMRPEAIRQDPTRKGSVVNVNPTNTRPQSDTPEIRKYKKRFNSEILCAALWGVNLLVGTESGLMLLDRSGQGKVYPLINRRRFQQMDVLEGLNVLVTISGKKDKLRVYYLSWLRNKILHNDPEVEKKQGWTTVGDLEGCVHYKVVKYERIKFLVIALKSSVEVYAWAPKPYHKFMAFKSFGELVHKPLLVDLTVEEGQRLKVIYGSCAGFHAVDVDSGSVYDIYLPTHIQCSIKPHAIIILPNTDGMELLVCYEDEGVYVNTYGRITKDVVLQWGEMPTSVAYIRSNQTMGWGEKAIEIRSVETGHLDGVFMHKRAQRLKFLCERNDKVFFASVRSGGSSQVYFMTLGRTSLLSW

MAPKAPK2 (human) = MAPKAPK2 (human) (UniProt P49137)
MST1R (human) = MST1R (human) (UniProt Q04912)
NEK3 (human) = NEK3 (human) (UniProt P51956)
NEK6 (human) = NEK6 (human) (UniProt Q9HC98)
NUAK2 (human) = NUAK2 (human) (UniProt Q9H093)
OXSR1 (human) = OXSR1 (human) (UniProt O95747)
PBK (human) = PBK (human) (UniProt Q96KB5)
Sequence of PBK (human) (Q96KB5 whole entry, looked up): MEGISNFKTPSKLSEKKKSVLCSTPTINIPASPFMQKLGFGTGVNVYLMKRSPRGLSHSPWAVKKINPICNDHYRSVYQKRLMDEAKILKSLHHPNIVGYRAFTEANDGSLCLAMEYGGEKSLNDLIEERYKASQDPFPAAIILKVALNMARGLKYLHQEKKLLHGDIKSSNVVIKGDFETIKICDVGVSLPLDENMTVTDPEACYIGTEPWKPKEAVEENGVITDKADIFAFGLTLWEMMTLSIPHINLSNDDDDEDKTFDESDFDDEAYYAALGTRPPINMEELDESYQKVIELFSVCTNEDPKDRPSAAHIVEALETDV

PDGFRB (human) = PDGFRB (human) (UniProt P09619)
PIM2 (human) = PIM2 (human) (UniProt Q9P1W9)
PRKCA (human) = PRKCA (human) (UniProt P17252)
PRKD1 (human) = PRKD1 (human) (UniProt Q15139)
PTK2 (human) = PTK2 (human) (UniProt Q05397)
RIPK2 (human) = RIPK2 (human) (UniProt O43353)
Sequence of RIPK2 (human) (O43353 whole entry, looked up): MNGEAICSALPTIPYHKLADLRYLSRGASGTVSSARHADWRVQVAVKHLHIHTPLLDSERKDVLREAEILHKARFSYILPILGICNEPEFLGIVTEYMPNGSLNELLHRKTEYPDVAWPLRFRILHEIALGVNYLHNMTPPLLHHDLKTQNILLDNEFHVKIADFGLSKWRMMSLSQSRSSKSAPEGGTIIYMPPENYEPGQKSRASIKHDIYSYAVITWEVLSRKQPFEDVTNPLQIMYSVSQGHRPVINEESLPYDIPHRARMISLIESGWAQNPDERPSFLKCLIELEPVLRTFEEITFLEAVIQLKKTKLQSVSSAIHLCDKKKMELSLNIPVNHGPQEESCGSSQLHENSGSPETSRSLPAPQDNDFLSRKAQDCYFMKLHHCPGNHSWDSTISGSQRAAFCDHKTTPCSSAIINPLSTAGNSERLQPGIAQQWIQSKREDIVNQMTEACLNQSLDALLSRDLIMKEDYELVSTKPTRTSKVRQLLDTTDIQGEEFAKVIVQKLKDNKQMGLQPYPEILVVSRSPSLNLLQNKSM

ROCK1 (human) = ROCK1 (human) (UniProt Q13464)
SGK2 (human) = SGK2 (human) (UniProt Q9HBY8)
SIK2 (human) = SIK2 (human) (UniProt Q9H0K1)
STK16 (human) = STK16 (human) (UniProt O75716)
STK24 (human) = STK24 (human) (UniProt Q9Y6E0)
STK4 (human) = STK4 (human) (UniProt Q13043)
Sequence of STK4 (human) (Q13043 whole entry, looked up): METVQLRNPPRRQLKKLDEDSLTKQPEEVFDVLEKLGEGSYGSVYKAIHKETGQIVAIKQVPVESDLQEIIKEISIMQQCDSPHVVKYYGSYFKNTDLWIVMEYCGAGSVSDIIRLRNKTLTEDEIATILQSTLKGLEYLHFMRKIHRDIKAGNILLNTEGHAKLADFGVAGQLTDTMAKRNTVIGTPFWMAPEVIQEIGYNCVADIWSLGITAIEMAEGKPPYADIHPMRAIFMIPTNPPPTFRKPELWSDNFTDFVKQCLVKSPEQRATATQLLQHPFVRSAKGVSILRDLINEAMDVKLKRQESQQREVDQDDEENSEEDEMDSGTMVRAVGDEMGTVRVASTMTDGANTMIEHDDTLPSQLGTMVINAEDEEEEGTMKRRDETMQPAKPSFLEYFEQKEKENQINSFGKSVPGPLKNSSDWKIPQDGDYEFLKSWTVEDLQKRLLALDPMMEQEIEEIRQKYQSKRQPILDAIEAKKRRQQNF

SYK (human) = SYK (human) (UniProt P43405)
TAOK3 (human) = TAOK3 (human) (UniProt Q9H2K8)
TTK (human) = TTK (human) (UniProt P33981)
Sequence of TTK (human) (P33981 whole entry, looked up): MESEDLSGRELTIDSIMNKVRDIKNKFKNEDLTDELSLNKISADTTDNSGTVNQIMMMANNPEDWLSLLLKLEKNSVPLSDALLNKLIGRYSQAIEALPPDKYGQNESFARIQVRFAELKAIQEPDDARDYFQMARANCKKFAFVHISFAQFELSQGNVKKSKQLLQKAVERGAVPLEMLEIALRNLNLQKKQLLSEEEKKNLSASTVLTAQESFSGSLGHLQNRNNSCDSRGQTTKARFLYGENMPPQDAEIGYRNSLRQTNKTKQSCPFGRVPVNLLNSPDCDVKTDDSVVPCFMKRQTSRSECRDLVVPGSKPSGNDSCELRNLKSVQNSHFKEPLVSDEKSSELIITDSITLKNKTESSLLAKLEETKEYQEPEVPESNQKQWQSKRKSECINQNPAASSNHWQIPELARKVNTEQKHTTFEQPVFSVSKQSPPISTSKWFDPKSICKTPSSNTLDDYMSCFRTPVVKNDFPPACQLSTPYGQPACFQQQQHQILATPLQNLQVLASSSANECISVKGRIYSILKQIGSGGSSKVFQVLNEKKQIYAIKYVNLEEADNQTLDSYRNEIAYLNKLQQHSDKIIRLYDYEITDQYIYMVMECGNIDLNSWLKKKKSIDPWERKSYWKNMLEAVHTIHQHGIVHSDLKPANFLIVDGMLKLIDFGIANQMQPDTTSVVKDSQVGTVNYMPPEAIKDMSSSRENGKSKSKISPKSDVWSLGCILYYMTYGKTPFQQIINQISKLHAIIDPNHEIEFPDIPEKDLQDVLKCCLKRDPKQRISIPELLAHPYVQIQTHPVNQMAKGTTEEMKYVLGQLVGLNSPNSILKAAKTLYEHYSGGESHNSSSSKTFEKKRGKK

[1] = molecular target: TYK2 JH1 catalytic (human) (UniProt P29597)

`c1ccc(-c2n[nH]cc2-c2ccnc3ccccc23)nc1` showed a residual activity (ABL2 (human)) of 67.8%, a residual activity (ACVR1 (human)) of 106% and a residual activity (AKT2 (human)) of 93%. It also gave a residual activity (CAMKK2 (human)) of 97%, a residual activity (CDK2 CCNA2 (human)) of 98.7% and a residual activity (CLK4 (human)) of 101%. The residual activity (CSNK2A1 (human)) was 96.3%, the residual activity (DYRK1B (human)) was 102% and the residual activity (EPHA6 (human)) was 98.8%. For the same compound, the residual activity (EPHA8 (human)) was 94.6%, the residual activity (FES (human)) was 111% and the residual activity (FGFR3 (human)) was 97.4%. It also gave a residual activity (FGR (human)) of 91.9%, a residual activity (HIPK2 (human)) of 91.3% and a residual activity (IGF1R (human)) of 102%. For the same compound, the residual activity (KDR (human)) was 103%, the residual activity (KIT (human)) was 93.5% and the residual activity (MAP3K7 TAB1 (human)) was 98.4%. The residual activity (MAP4K4 (human)) was 48.3%, the residual activity (MAPKAPK2 (human)) was 100% and the residual activity (MST1R (human)) was 99.9%. For the same compound, the residual activity (NEK3 (human)) was 90.2%, the residual activity (NEK6 (human)) was 106% and the residual activity (NUAK2 (human)) was 135%. The residual activity (OXSR1 (human)) was 85.3%, the residual activity (PBK (human)) was 91.9% and the residual activity (PDGFRB (human)) was 106%. It also gave a residual activity (PIM2 (human)) of 115%, a residual activity (PRKCA (human)) of 98.5% and a residual activity (PRKD1 (human)) of 63%. It also gave a residual activity (PTK2 (human)) of 99.3%, a residual activity (RIPK2 (human)) of 64.7% and a residual activity (ROCK1 (human)) of 103%. It also gave a residual activity (SGK2 (human)) of 101%, a residual activity (SIK2 (human)) of 94.8% and a residual activity (STK16 (human)) of 100%. The residual activity (STK24 (human)) was 96.8%, the residual activity (STK4 (human)) was 101% and the residual activity (SYK (human)) was 99.7%. The residual activity (TAOK3 (human)) was 92.8%, the residual activity (TTK (human)) was 97.4% and the residual activity [1] was 101%.
`CCN(CC)CCNC(=O)c1c(C)[nH]c(/C=C2\C(=O)Nc3ccc(Cl)cc32)c1C` showed a residual activity (ABL2 (human)) of 46.8%, a residual activity (ACVR1 (human)) of 108% and a residual activity (AKT2 (human)) of 86.9%. The residual activity (CAMKK2 (human)) was 48%, the residual activity (CDK2 CCNA2 (human)) was 92.8% and the residual activity (CLK4 (human)) was 16.8%. It also gave a residual activity (CSNK2A1 (human)) of 91.4%, a residual activity (DYRK1B (human)) of 47.5% and a residual activity (EPHA6 (human)) of 45.7%. It also gave a residual activity (EPHA8 (human)) of 99.5%, a residual activity (FES (human)) of 22.1% and a residual activity (FGFR3 (human)) of 12.3%. It also gave a residual activity (FGR (human)) of 11.5%, a residual activity (HIPK2 (human)) of 20% and a residual activity (IGF1R (human)) of 35.2%. The residual activity (KDR (human)) was 13.8%, the residual activity (KIT (human)) was 28.7% and the residual activity (MAP3K7 TAB1 (human)) was 3.51%. It also gave a residual activity (MAP4K4 (human)) of 4.33%, a residual activity (MAPKAPK2 (human)) of 103% and a residual activity (MST1R (human)) of 96.7%. The residual activity (NEK3 (human)) was 94%, the residual activity (NEK6 (human)) was 97.8% and the residual activity (NUAK2 (human)) was 70.7%. The residual activity (OXSR1 (human)) was 80.1%, the residual activity (PBK (human)) was 104% and the residual activity (PDGFRB (human)) was 9.28%. It also gave a residual activity (PIM2 (human)) of 101%, a residual activity (PRKCA (human)) of 93.1% and a residual activity (PRKD1 (human)) of 11.3%. The residual activity (PTK2 (human)) was 25.8%, the residual activity (RIPK2 (human)) was 84.1% and the residual activity (ROCK1 (human)) was 89.7%. For the same compound, the residual activity (SGK2 (human)) was 62.8%, the residual activity (SIK2 (human)) was 42.7% and the residual activity (STK16 (human)) was 72.9%. It also gave a residual activity (STK24 (human)) of 22.2%, a residual activity (STK4 (human)) of 2.98% and a residual activity (SYK (human)) of 59.2%. The residual activity (TAOK3 (human)) was 45.5%, the residual activity (TTK (human)) was 59.8% and the residual activity [1] was 30.8%.
In the case of `O=C1NC(=O)C(c2cn(CCCn3ccnc3)c3ccccc23)=C1Nc1ccccc1`, the residual activity (ABL2 (human)) is reported as 91.8%, the residual activity (ACVR1 (human)) is reported as 94.4% and the residual activity (AKT2 (human)) is reported as 92.3%. For the same compound, the residual activity (CAMKK2 (human)) was 51.3%, the residual activity (CDK2 CCNA2 (human)) was 83.4% and the residual activity (CLK4 (human)) was 38.9%. It also gave a residual activity (CSNK2A1 (human)) of 100%, a residual activity (DYRK1B (human)) of 56.3% and a residual activity (EPHA6 (human)) of 106%. It also gave a residual activity (EPHA8 (human)) of 104%, a residual activity (FES (human)) of 103% and a residual activity (FGFR3 (human)) of 100%. It also gave a residual activity (FGR (human)) of 86.3%, a residual activity (HIPK2 (human)) of 87.6% and a residual activity (IGF1R (human)) of 95.3%. The residual activity (KDR (human)) was 90.2%, the residual activity (KIT (human)) was 90.2% and the residual activity (MAP3K7 TAB1 (human)) was 93.8%. It also gave a residual activity (MAP4K4 (human)) of 64%, a residual activity (MAPKAPK2 (human)) of 102% and a residual activity (MST1R (human)) of 93.5%. For the same compound, the residual activity (NEK3 (human)) was 99.5%, the residual activity (NEK6 (human)) was 93.6% and the residual activity (NUAK2 (human)) was 113%. It also gave a residual activity (OXSR1 (human)) of 97.2%, a residual activity (PBK (human)) of 104% and a residual activity (PDGFRB (human)) of 76.5%. The residual activity (PIM2 (human)) was 102%, the residual activity (PRKCA (human)) was 32% and the residual activity (PRKD1 (human)) was 94.4%. The residual activity (PTK2 (human)) was 104%, the residual activity (RIPK2 (human)) was 84.3% and the residual activity (ROCK1 (human)) was 99.2%. The residual activity (SGK2 (human)) was 82.4%, the residual activity (SIK2 (human)) was 90.3% and the residual activity (STK16 (human)) was 110%. For the same compound, the residual activity (STK24 (human)) was 51.7%, the residual activity (STK4 (human)) was 40.9% and the residual activity (SYK (human)) was 99.9%. For the same compound, the residual activity (TAOK3 (human)) was 76.5%, the residual activity (TTK (human)) was 121% and the residual activity [1] was 83.4%.
Compound `O=C1Nc2ccc(Cl)cc2/C1=C/c1cc(Cl)c(O)c(Cl)c1` has a residual activity (ABL2 (human)) of 80.4%, a residual activity (ACVR1 (human)) of 130% and a residual activity (AKT2 (human)) of 93.9%. For the same compound, the residual activity (CAMKK2 (human)) was 51.5%, the residual activity (CDK2 CCNA2 (human)) was 99.5% and the residual activity (CLK4 (human)) was 60.7%. It also gave a residual activity (CSNK2A1 (human)) of 26.5%, a residual activity (DYRK1B (human)) of 90.9% and a residual activity (EPHA6 (human)) of 72.8%. The residual activity (EPHA8 (human)) was 91.5%, the residual activity (FES (human)) was 93.7% and the residual activity (FGFR3 (human)) was 94%. For the same compound, the residual activity (FGR (human)) was 84.8%, the residual activity (HIPK2 (human)) was 122% and the residual activity (IGF1R (human)) was 98.3%. For the same compound, the residual activity (KDR (human)) was 86.1%, the residual activity (KIT (human)) was 35% and the residual activity (MAP3K7 TAB1 (human)) was 86.8%. The residual activity (MAP4K4 (human)) was 4.48%, the residual activity (MAPKAPK2 (human)) was 100% and the residual activity (MST1R (human)) was 94.8%. For the same compound, the residual activity (NEK3 (human)) was 94%, the residual activity (NEK6 (human)) was 104% and the residual activity (NUAK2 (human)) was 78.7%. It also gave a residual activity (OXSR1 (human)) of 91.6%, a residual activity (PBK (human)) of 86.1% and a residual activity (PDGFRB (human)) of 76.9%. The residual activity (PIM2 (human)) was 48.6%, the residual activity (PRKCA (human)) was 105% and the residual activity (PRKD1 (human)) was 91.5%. For the same compound, the residual activity (PTK2 (human)) was 91.5%, the residual activity (RIPK2 (human)) was 50.2% and the residual activity (ROCK1 (human)) was 93.2%. The residual activity (SGK2 (human)) was 89.2%, the residual activity (SIK2 (human)) was 95% and the residual activity (STK16 (human)) was 90.2%. The residual activity (STK24 (human)) was 104%, the residual activity (STK4 (human)) was 32.5% and the residual activity (SYK (human)) was 93.3%. It also gave a residual activity (TAOK3 (human)) of 50.6%, a residual activity (TTK (human)) of 84.4% and a residual activity [1] of 26.9%.
